Nine compounds from ChEMBL document CHEMBL5465560, “Selectivity Literature for EUbOPEN Chemogenomic Library” (2024) can be followed below.

Assay [1] concerns the target T1, cAMP-dependent protein kinase catalytic subunit PRKX (Homo sapiens) (UniProt P51817).
T1 sequence (whole entry): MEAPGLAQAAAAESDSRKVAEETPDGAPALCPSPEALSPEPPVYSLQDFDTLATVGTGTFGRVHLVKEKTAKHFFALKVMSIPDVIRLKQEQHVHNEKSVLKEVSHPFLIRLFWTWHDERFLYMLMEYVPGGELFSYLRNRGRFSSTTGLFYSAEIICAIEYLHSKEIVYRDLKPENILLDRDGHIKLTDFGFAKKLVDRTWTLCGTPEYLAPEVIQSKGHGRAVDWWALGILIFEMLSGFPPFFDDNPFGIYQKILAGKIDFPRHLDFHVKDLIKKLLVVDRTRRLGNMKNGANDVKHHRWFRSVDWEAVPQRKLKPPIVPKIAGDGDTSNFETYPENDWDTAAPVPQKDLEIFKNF
Put plainly: Selectivity interaction (Kinase panel (Z-LYTE Assay)) EUB0001632a PRKX. As to conditions: at 10 µM.

For assay [2], the target named is T2, Mitogen-activated protein kinase kinase kinase kinase 3 (Homo sapiens) (UniProt Q8IVH8).
T2 sequence (whole entry): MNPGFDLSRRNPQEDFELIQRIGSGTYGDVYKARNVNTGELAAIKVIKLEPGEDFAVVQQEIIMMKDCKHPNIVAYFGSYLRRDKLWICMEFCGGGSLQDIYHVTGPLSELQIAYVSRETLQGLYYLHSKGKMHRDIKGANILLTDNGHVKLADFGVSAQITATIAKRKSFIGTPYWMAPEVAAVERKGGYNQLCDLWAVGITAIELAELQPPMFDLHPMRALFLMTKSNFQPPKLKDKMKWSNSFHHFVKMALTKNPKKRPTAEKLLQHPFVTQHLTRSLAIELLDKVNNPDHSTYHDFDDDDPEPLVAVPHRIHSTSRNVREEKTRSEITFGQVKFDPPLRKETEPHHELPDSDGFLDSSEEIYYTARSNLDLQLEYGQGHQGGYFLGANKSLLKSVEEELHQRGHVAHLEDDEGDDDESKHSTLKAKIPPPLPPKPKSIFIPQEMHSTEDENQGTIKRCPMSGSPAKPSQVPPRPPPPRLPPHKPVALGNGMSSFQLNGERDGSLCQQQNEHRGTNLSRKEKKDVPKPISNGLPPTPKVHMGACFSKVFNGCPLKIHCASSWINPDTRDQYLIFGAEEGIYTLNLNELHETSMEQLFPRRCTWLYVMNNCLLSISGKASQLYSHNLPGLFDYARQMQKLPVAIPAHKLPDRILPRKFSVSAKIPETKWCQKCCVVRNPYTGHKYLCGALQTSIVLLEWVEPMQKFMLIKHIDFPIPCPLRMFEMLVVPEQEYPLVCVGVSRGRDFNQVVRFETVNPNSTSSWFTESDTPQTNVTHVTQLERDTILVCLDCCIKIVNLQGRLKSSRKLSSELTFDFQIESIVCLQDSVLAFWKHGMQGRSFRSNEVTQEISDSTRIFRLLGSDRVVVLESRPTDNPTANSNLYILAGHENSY
Put plainly: Selectivity interaction (KinomeScan (DiscoverX)) EUB0000595a MAP4K3. To be noted: at 10 µM.

Assay [3] deals with Ribosomal protein S6 kinase alpha-3 (Homo sapiens, UniProt P51812). Put plainly: Selectivity interaction (KinomeScan (DiscoverX)) EUB0000595a RPS6KA3. To be noted: at 10 µM.
Chain of Ribosomal protein S6 kinase alpha-3 (P51812 whole entry): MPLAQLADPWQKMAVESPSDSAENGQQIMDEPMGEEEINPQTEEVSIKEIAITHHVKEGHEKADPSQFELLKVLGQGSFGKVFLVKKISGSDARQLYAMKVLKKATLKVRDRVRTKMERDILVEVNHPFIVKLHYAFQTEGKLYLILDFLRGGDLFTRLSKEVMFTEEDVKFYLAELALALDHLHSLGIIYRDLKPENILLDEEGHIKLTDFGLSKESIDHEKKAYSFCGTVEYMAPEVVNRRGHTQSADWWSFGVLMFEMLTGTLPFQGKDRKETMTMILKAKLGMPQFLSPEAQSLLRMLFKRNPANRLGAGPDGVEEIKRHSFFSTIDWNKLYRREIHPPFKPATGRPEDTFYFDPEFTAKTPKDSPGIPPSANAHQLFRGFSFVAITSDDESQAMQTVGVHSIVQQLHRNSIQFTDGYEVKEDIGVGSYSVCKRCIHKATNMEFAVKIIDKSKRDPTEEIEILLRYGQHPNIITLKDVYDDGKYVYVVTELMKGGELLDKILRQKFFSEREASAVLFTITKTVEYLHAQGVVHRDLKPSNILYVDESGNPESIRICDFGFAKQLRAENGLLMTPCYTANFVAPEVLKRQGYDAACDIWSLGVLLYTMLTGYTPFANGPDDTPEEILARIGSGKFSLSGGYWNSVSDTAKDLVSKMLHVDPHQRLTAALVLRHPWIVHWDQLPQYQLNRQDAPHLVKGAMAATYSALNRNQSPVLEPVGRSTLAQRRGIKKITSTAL
Assay [4] deals with Mitogen-activated protein kinase kinase kinase 1 (Homo sapiens, UniProt Q13233). Put plainly: Selectivity interaction (KinomeScan (DiscoverX)) EUB0000695a MAP3K1. To be noted: at 100 nM.
Chain of Mitogen-activated protein kinase kinase kinase 1 (Q13233 whole entry): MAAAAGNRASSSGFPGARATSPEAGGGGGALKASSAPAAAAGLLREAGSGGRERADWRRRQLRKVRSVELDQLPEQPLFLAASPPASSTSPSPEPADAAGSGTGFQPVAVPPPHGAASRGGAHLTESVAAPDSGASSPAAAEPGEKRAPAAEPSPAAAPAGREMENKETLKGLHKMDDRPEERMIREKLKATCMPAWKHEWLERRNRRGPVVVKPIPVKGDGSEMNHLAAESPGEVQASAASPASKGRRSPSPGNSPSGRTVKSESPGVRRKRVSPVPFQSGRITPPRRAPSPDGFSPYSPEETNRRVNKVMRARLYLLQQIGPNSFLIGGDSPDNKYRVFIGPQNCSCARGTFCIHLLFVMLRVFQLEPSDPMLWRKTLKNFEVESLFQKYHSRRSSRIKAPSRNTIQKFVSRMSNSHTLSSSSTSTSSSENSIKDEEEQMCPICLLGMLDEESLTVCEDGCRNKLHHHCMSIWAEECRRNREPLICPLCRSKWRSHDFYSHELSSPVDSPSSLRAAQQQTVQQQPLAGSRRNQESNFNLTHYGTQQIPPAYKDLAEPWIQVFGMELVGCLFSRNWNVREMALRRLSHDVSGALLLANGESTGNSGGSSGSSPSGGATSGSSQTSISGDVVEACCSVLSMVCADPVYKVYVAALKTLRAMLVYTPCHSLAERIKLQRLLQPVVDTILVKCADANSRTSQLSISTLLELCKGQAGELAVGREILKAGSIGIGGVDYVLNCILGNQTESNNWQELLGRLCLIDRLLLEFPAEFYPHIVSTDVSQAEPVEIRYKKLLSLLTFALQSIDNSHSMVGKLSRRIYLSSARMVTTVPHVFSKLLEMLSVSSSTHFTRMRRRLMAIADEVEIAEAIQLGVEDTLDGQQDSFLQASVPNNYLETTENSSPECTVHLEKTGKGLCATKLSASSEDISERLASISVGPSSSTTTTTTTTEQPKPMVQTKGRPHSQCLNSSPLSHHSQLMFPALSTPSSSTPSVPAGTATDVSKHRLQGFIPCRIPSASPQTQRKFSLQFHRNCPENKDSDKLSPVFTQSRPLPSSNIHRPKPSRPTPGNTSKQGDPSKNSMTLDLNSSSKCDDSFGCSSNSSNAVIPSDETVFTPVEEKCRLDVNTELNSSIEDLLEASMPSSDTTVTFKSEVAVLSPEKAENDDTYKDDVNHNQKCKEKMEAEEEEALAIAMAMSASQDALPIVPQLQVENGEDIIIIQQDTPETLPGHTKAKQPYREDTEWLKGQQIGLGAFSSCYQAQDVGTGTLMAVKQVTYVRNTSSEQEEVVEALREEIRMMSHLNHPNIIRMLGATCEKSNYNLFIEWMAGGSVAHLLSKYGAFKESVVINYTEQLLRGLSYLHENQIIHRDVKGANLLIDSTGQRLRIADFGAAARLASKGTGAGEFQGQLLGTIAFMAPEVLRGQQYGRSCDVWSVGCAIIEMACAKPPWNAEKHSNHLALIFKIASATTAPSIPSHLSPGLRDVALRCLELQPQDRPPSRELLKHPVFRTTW
Assay [5] addresses Fibroblast growth factor receptor 2 (Homo sapiens) (UniProt P21802). Put plainly: Selectivity interaction (SelectScreen profiling (Invitrogen)) EUB0000607a FGFR2. As to conditions: at 2 µM.
Assay [6] has as its target Serine/threonine-protein kinase pim-1 (Homo sapiens, UniProt P11309). Put plainly: Selectivity interaction (Kinase panel (Invitrogen)) EUB0000639a PIM1. As to conditions: at 200 nM.
Assay [7] deals with DNA-dependent protein kinase catalytic subunit (Homo sapiens) (UniProt P78527). Put plainly: Selectivity interaction (ActivX KiNativ screen (kinase selectivity in THP-1 cell lysates)) EUB0000639a PRKDC. The class given is subcellular. As to conditions: lysate, at 1 µM.
Assay [8] concerns the target Serine/threonine-protein kinase N1 (Homo sapiens, UniProt Q16512). Put plainly: Selectivity interaction (ActivX KiNativ screen (kinase selectivity in THP-1 cell lysates)) EUB0000639a PKN1. The class given is subcellular. To be noted: lysate, at 0.2 µM.
Assay [9] addresses Fibroblast growth factor receptor 1 (Homo sapiens, UniProt P11362). Put plainly: Selectivity interaction (Ambit KINOMEscan and KiNATiv profiling in Jurkat cells) EUB0000090b FGFR1. To be noted: at 1 µM. The class given is cell-based.
In assay [10] the target is Serine/threonine-protein kinase Nek6 (Homo sapiens) (UniProt Q9HC98). Put plainly: Selectivity interaction (Upstate Kinase Profiler service (Millipore)) EUB0000056c NEK6. As to conditions: at 1 µM.
Chain of Serine/threonine-protein kinase Nek6 (Homo sapiens) (Q9HC98 whole entry): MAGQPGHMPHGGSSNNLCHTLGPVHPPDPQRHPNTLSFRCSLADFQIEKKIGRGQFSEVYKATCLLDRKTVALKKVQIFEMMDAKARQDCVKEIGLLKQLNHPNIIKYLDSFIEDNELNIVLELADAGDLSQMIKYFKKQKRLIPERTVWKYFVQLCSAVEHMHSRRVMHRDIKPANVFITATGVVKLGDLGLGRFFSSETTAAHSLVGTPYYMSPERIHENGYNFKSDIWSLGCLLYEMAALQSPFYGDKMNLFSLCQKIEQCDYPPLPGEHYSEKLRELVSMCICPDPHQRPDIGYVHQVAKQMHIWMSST
The target of assay [11] is BMP-2-inducible protein kinase (Homo sapiens) (UniProt Q9NSY1). Put plainly: Selectivity interaction (KinomeScan (DiscoverX)) EUB0000655a BMP2K. To be noted: at 10 µM.
Chain of BMP-2-inducible protein kinase (Homo sapiens) (Q9NSY1 whole entry, looked up): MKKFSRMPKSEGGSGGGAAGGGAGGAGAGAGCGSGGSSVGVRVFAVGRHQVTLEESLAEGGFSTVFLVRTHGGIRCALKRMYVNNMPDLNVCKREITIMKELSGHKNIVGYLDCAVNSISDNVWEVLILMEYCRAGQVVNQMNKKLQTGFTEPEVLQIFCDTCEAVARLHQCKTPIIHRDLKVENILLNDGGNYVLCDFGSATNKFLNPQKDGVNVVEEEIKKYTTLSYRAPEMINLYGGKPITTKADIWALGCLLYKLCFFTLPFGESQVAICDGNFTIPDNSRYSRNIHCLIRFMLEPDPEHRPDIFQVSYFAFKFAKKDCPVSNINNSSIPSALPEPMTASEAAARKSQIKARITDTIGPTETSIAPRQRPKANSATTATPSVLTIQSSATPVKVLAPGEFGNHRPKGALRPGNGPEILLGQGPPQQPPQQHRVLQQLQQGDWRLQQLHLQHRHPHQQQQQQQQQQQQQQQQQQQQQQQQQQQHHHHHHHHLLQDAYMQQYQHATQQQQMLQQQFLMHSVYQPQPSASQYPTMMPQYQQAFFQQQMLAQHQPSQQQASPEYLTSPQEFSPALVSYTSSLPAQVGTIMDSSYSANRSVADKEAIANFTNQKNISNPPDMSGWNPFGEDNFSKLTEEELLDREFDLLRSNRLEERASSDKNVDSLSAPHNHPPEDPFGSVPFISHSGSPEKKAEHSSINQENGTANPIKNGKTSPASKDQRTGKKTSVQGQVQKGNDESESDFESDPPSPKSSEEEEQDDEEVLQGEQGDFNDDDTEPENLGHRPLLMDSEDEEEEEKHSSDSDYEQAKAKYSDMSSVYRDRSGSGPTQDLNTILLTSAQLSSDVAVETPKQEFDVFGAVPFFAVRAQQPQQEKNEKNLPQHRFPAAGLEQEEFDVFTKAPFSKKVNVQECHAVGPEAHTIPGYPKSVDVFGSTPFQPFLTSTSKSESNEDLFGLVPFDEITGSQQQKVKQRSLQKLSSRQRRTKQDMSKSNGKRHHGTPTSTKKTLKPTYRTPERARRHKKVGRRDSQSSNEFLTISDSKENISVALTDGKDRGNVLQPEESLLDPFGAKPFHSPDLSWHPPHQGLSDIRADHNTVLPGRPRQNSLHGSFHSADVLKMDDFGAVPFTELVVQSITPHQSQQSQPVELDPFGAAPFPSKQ
The target of assay [12] is RAC-gamma serine/threonine-protein kinase (Homo sapiens, UniProt Q9Y243). Put plainly: Selectivity interaction (Kinase panel (DSF assay)) EUB0001558a AKT3. Background: Differential scanning fluorimetry follows unfolding on heating by fluorescence.
Chain of RAC-gamma serine/threonine-protein kinase (Q9Y243 whole entry): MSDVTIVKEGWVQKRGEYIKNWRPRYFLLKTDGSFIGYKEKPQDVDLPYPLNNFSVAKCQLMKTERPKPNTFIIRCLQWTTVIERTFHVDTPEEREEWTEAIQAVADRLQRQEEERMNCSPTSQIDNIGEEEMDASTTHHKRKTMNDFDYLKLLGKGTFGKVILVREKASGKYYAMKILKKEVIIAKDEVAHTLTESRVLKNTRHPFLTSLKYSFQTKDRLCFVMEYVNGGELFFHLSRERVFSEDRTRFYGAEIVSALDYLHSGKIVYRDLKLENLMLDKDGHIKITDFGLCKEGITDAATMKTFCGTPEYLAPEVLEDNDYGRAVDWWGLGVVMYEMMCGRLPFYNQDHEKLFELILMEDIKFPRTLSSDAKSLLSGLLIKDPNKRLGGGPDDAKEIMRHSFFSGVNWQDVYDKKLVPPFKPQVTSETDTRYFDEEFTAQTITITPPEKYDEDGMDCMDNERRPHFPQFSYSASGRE
Assay [13] concerns the target T3, Serine/threonine-protein kinase 17B (Homo sapiens) (UniProt O94768).
T3 sequence (whole entry): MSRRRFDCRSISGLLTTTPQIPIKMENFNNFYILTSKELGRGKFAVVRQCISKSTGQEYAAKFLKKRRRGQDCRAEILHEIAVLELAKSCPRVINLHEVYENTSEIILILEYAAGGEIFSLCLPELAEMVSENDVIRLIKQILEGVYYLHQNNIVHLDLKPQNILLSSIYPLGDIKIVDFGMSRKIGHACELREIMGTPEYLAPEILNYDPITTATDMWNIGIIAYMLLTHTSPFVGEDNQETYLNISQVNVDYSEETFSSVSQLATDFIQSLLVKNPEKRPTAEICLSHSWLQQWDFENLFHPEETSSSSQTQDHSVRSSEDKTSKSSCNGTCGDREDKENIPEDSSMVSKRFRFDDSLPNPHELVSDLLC
Put plainly: Selectivity interaction (Kinase panel (DSF assay)) EUB0001558a STK17B.

Chain of Serine/threonine-protein kinase pim-1 (P11309 whole entry, looked up): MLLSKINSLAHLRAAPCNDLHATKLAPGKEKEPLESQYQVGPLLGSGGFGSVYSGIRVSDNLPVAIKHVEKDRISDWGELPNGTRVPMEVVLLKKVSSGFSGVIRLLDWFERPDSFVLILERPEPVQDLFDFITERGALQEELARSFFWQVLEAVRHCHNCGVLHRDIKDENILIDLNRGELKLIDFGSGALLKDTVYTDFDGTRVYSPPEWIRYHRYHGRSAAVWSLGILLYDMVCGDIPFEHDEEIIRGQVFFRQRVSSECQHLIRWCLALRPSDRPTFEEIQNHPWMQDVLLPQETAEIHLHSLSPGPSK

On to `Cn1cc(-n2cnc3c(NCc4nc5cc(Cl)c(Cl)cc5[nH]4)nc(N4CCOCC4)nc32)cn1`, for which the % of control in [1] was 2.85%. With `COCC(=O)NC/C=C/c1ccc2ncnc(Nc3ccc(Oc4ccc(C)nc4)c(C)c3)c2c1` [CP-724714], the values for the % of control in assay [2] and in assay [3] were 80% and 92%, respectively. `Cc1cc(F)c(C(=O)Nc2cccc(-c3nncn3C(C)C)n2)cc1-n1cnc(C2CC2)c1` yielded a % of control in [4] of 100%. For the compound `CNC(=O)Nc1ccc(-c2nc(N3CC4CCC(C3)O4)c3cnn(C4CCC5(CC4)OCCO5)c3n2)cc1`, in assay [5], the % of inhibition is 4%. Consider `CC[C@@H]1[C@H](F)C(=O)N[C@@H]1COc1nccc2cc(C(N)=O)c(OC)cc12` [ZIMLOVISERTIB], for which the % of inhibition in [6] was 12.3%; in assay [7], 7.2%; in assay [8] it was 5.5%. The compound `CN(C)C/C=C/C(=O)Nc1ccc(C(=O)N2CCCC(Nc3ncc(Cl)c(-c4c[nH]c5ccccc45)n3)C2)cc1` (stereo not drawn) displayed a % of control in assay [9] of 82%.

As to `Cc1ccc(-c2ccc3c(ccc4sc5c(c43)NC[C@@H](C)NC5=O)n2)cn1`, in assay [10], the % of inhibition was -6%. `CN(C)CCOc1ccc(-c2nc(-c3ccncc3)c(-c3ccc4c(c3)CC/C4=N\O)[nH]2)cc1`: the % of control in [11] is 82%.

`CC(C)(O)[C@H](F)CN1Cc2cc(NC(=O)c3cnn4cccnc34)c(N3CCOCC3)cc2C1=O`: the dTM in assay [12] turned out to be 0.1 K; in assay [13] it was 1.7 K.
